According to US20240190862A1 (AMGEN INC., priority 2019, published 2024):
Read-outs that look alike come from different tables or passages of the source.

Columns and labels:
[1] = biological target: GDP-bound KRAS protein (aa 1-169) G12C/C118A (Homo sapiens (Human), UniProt P01116, C118A/G12C); test: Coupled Nucleotide Exchange Assay (KRAS G12C); type: biochemical
Protocol: (§1) Coupled Nucleotide Exchange Assay: Purified GDP-bound KRAS protein (aa 1-169), containing either G12C or G12D, as well as C118A amino acid substitutions and an N-terminal His-tag, was pre-incubated in assay buffer (25 mM HEPES pH 7.4, 10 mM MgCl2, and 0.01% Triton X-100) with a compound dose-response titration for either 5 min or 20 hours (see Table 15). Following compound pre-incubation, purified SOS protein (aa 564-1049) and GTP (Roche 10106399001) were added to the assay wells and incubated for an additional 30 min. To determine the extent of inhibition of SOS-mediated nucleotide exchange, purified GST-tagged cRAF (aa 1-149), nickel chelate AlphaLISA acceptor beads (PerkinElmer AL108R), and AlphaScreen glutathione donor beads (PerkinElmer 6765302) were added to the assay wells and incubated for 10 minutes. The assay plates were then read on a PerkinElmer EnVision Multilabel Reader, using AlphaScreen® technology, and data were analyzed using a 4-parameter logistic model to calculate IC50 values.

[2] = biological target: GDP-bound KRAS protein (aa 1-169) G12D/C118A (Homo sapiens (Human), UniProt P01116, C118A/G12D); test: Coupled Nucleotide Exchange Assay (KRAS G12D); type: biochemical
GDP-bound KRAS protein (aa 1-169) G12D/C118A, sequence (P01116 other isoform, or with tags, fused parts or gaps G12D/C118A): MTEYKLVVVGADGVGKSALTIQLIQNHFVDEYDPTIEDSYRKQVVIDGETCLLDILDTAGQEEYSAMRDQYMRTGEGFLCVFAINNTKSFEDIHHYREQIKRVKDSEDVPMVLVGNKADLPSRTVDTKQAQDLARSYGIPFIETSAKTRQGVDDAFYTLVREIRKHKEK
Protocol: as §1

[3] = 5 min compound pre-incubation, read-out: GDP KRAS G12C 5 min Coupled Exchange IC50 IP
[4] = 20 h compound pre-incubation, read-out: GDP KRAS G12C 20 h Coupled Exchange IC50 IP
[5] = 20 h compound pre-incubation, read-out: GDP KRAS G12D 20 h Coupled Exchange IC50 IP

GDP-bound KRAS protein (aa 1-169) G12C/C118A, sequence (P01116 other isoform, or with tags, fused parts or gaps G12C/C118A): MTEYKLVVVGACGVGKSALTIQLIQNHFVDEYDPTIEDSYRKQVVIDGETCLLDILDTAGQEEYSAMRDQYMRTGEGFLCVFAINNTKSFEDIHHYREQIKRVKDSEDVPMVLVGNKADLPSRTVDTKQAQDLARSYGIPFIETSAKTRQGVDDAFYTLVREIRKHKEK

| SMILES | IC50 [1, 3] [µM] | IC50 [1, 4] [µM] | IC50 [2, 5] [µM] | IC50 ([1]; GDP KRAS G12C 5 min Coupled Exchange IC50 IP, 5 min compound pre-incubation) [µM] | IC50 ([1]; GDP KRAS G12C 20 h Coupled Exchange IC50 IP, 20 h compound pre-incubation) [µM] | IC50 [2] [µM] |
| --- | --- | --- | --- | --- | --- | --- |
| Cc1ccnc(C(C)C)c1-n1c(=O)nc(N2CC[C@@H](NC(=O)C3CO3)C2)c2cc(Cl)c(-c3ccccc3F)nc21 (stereo partly drawn) [Example 26, N—((R)-1-(6-Chloro-7-(2-fluorophenyl)-1-(2-isopropyl-4-methylpyridin-3-yl)-2-oxo-1,2-dihydropyrido[2,3-d]pyrimidin-4-yl)pyrrolidin-3-yl)oxirane-2-carboxamide] | 194 | 2.99 | > 250 |  |  |  |
| Cc1ccnc(C(C)C)c1-n1c(=O)nc(N2CCN(C(=O)[C@@H]3O[C@H]3CO)C[C@@H]2C)c2cc(Cl)c(-c3ccccc3F)nc21 [Example 22, 6-Chloro-7-(2-fluorophenyl)-4-((S)-4-((2R,3S)-3-(hydroxymethyl)oxirane-2-carbonyl)-2-methylpiperazin-1-yl)-1-(2-isopropyl-4-methylpyridin-3-yl)pyrido[2,3-d]pyrimidin-2(1H)-one] | 6.26 | 0.064 | > 250 |  |  |  |
| Cc1ccnc(C(C)C)c1-n1c(=O)nc(N2CCN(C(=O)[C@H]3CN3)C[C@@H]2C)c2cc(Cl)c(-c3ccccc3F)nc21 [Example 14, 4-((S)-4-((R)-Aziridine-2-carbonyl)-2-methylpiperazin-1-yl)-6-chloro-7-(2-fluorophenyl)-1-(2-isopropyl-4-methylpyridin-3-yl)pyrido[2,3-d]pyrimidin-2(1H)-one] | 88.3 | 1.56 | > 250 |  |  |  |
| Cc1ccnc(C(C)C)c1-n1c(=O)nc(N2CCN(C(=O)[C@@H]3O[C@H]3C(=O)O)C[C@@H]2C)c2cc(Cl)c(-c3ccccc3F)nc21 [Example 20, (2R,3R)-3-((S)-4-(6-chloro-7-(2-fluorophenyl)-1-(2-isopropyl-4-methylpyridin-3-yl)-2-oxo-1,2-dihydropyrido[2,3-d]pyrimidin-4-yl)-3-methylpiperazine-1-carbonyl)oxirane-2-carboxylic acid] |  | 1 | > 250 |  |  |  |
| Cc1ccnc(C(C)C)c1-n1c(=O)nc(N2CCN(C(=O)[C@@H]3CO3)C[C@@H]2C)c2cc(Cl)c(-c3ccccc3F)nc21 [Example 15, 6-Chloro-7-(2-fluorophenyl)-1-(2-isopropyl-4-methylpyridin-3-yl)-4-((S)-2-methyl-4-((S)-oxirane-2-carbonyl)piperazin-1-yl)pyrido[2,3-d]pyrimidin-2(1H)-one] | 74.1 | 0.83 | > 250 |  |  |  |
| Cc1ccnc(C(C)C)c1-n1c(=O)nc(N2CCN(C(=O)COc3ccccc3)C[C@@H]2C)c2cc(Cl)c(-c3ccccc3F)nc21 [Example 6, (S)-6-Chloro-7-(2-fluorophenyl)-1-(2-isopropyl-4-methylpyridin-3-yl)-4-(2-methyl-4-(2-phenoxyacetyl)piperazin-1-yl)pyrido[2,3-d]pyrimidin-2(1H)-one] | > 250 | 131 | > 250 |  |  |  |
| Cc1ccnc(C(C)C)c1-n1c(=O)nc(N2CCN(C(=O)COc3c(Cl)cccc3Cl)C[C@@H]2C)c2cc(Cl)c(-c3ccccc3F)nc21 [Example 7, (S)-6-Chloro-4-(4-(2-(2,6-dichlorophenoxy)acetyl)-2-methylpiperazin-1-yl)-7-(2-fluorophenyl)-1-(2-isopropyl-4-methylpyridin-3-yl)pyrido[2,3-d]pyrimidin-2(1H)-one] | > 250 | 26.2 | > 250 |  |  |  |
| Cc1ccnc(C(C)C)c1-n1c(=O)nc(N2CCN(C(=O)COc3c(F)cc(F)cc3F)C[C@@H]2C)c2cc(Cl)c(-c3ccccc3F)nc21 [Example 11, (S)-6-Chloro-7-(2-fluorophenyl)-1-(2-isopropyl-4-methylpyridin-3-yl)-4-(2-methyl-4-(2-(2,4,6-trifluorophenoxy)acetyl)piperazin-1-yl)pyrido[2,3-d]pyrimidin-2(1H)-one] | 69.8 | 5.45 | > 250 |  |  |  |
| Cc1ccnc(C(C)C)c1-n1c(=O)nc(N2CCN(C(=O)[C@H]3O[C@@H]3C)C[C@@H]2C)c2cc(Cl)c(-c3ccccc3F)nc21 (mixture of isomers) [Example 17, 6-Chloro-7-(2-fluorophenyl)-1-(2-isopropyl-4-methylpyridin-3-yl)-4-((S)-2-methyl-4-((2R,3S)-3-methyloxirane-2-carbonyl)piperazin-1-yl)pyrido[2,3-d]pyrimidin-2(1H)-one and 6-chloro-7-(2-fluorophenyl)-1-(2-isopropyl-4-methylpyridin-3-yl)-4-((S)-2-methyl-4-((2S,3R)-3-methyloxirane-2-carbonyl)piperazin-1-yl)pyrido[2,3-d]pyrimidin-2(1H)-one] | 17.8 | 0.096 | > 250 |  |  |  |
| Cc1ccnc(C(C)C)c1-n1c(=O)nc(N2CCN(C(=O)CCl)C[C@@H]2C)c2cc(Cl)c(-c3ccccc3F)nc21 [Example 1, (S)-6-Chloro-4-(4-(2-chloroacetyl)-2-methylpiperazin-1-yl)-7-(2-fluorophenyl)-1-(2-isopropyl-4-methylpyridin-3-yl)pyrido[2,3-d]pyrimidin-2(1H)-one] | 1.29 | 0.026 | > 250 |  |  |  |
| Cc1ccnc(C(C)C)c1-n1c(=O)nc(N2CCN(C(=O)COc3cccc(F)c3F)C[C@@H]2C)c2cc(Cl)c(-c3ccccc3F)nc21 [Example 12, (S)-6-Chloro-7-(2-fluorophenyl)-1-(2-isopropyl-4-methylpyridin-3-yl)-4-(2-methyl-4-(2-(2,3-difluorophenoxy)acetyl)piperazin-1-yl)pyrido[2,3-d]pyrimidin-2(1H)-one] | 35.7 | 2.02 | > 250 |  |  |  |
| Cc1ccnc(C(C)C)c1-n1c(=O)nc(N2CCC3(CC2)CN(C(=O)[C@H]2CO2)C3)c2cc(Cl)c(-c3ccccc3F)nc21 [Example 25, (R)-6-chloro-7-(2-fluorophenyl)-1-(2-isopropyl-4-methylpyridin-3-yl)-4-(2-(oxirane-2-carbonyl)-2,7-diazaspiro[3.5]nonan-7-yl)pyrido[2,3-d]pyrimidin-2(1H)-one] |  | 7.15 | > 250 |  |  |  |
| Cc1ccnc(C(C)C)c1-n1c(=O)nc(N2CCN(C(=O)COc3c(F)c(F)cc(F)c3F)C[C@@H]2C)c2cc(Cl)c(-c3ccccc3F)nc21 [Example 9, (S)-6-chloro-7-(2-fluorophenyl)-1-(2-isopropyl-4-methylpyridin-3-yl)-4-(2-methyl-4-(2-(2,3,5,6-tetrafluorophenoxy)acetyl)piperazin-1-yl)pyrido[2,3-d]pyrimidin-2(1H)-one] | 33.9 | 2.45 | > 250 |  |  |  |
| Cc1ccnc(C(C)C)c1-n1c(=O)nc(N2CCC3C2CN3C(=O)C2CO2)c2cc(Cl)c(-c3ccccc3F)nc21 (stereo not shown) [Example 28, 6-Chloro-7-(2-fluorophenyl)-1-(2-isopropyl-4-methylpyridin-3-yl)-4-(6-(oxirane-2-carbonyl)-2,6-diazabicyclo[3.2.0]heptan-2-yl)pyrido[2,3-d]pyrimidin-2(1H)-one] | 193 | 0.647 | > 250 |  |  |  |
| Cc1ccnc(C(C)C)c1-n1c(=O)nc(N2CC(NC(=O)C3CO3)C2)c2cc(Cl)c(-c3ccccc3F)nc21 (stereo not shown) [Example 27] | 4.41 | 0.018 | > 250 |  |  |  |
| Cc1ccnc(C(C)C)c1-n1c(=O)nc(N2CCN(C(=O)C3CO3)[C@@H](CC#N)C2)c2cc(Cl)c(-c3ccccc3F)nc21 (stereo partly drawn) [Example 23, 2-((2S)-4-(6-Chloro-7-(2-fluorophenyl)-1-(2-isopropyl-4-methylpyridin-3-yl)-2-oxo-1,2-dihydropyrido[2,3-d]pyrimidin-4-yl)-1-(oxirane-2-carbonyl)piperazin-2-yl)acetonitrile] | > 250 | 0.431 | > 250 |  |  |  |
| Cc1ccnc(C(C)C)c1-n1c(=O)nc(N2CCN(C(=O)[C@@H]3O[C@H]3CN3CCCCC3)C[C@@H]2C)c2cc(Cl)c(-c3ccccc3F)nc21 [Example 21, 6-Chloro-7-(2-fluorophenyl)-1-(2-isopropyl-4-methylpyridin-3-yl)-4-((S)-2-methyl-4-((2R,3S)-3-(piperidin-1-ylmethyl)oxirane-2-carbonyl)piperazin-1-yl)pyrido[2,3-d]pyrimidin-2(1H)-one] | 1.12 | 0.005 | > 250 |  |  |  |
| Cc1ccnc(C(C)C)c1-n1c(=O)nc(N(C)C2CN(C(=O)C3CO3)C2)c2cc(Cl)c(-c3ccccc3F)nc21 (stereo not shown) [Example 29] | 13.8 | 0.227 | > 250 |  |  |  |
| Cc1ccnc(C(C)C)c1-n1c(=O)nc(N2CCN(C(=O)CF)C[C@@H]2C)c2cc(Cl)c(-c3ccccc3F)nc21 [Example 2, (S)-6-Chloro-4-(4-(2-fluoroacetyl)-2-methylpiperazin-1-yl)-7-(2-fluorophenyl)-1-(2-isopropyl-4-methylpyridin-3-yl)pyrido[2,3-d]pyrimidin-2(1H)-one] |  |  |  | > 250 | 13.4 | > 250 |
